According to US12509465B2, “Benzoimidazole derivatives as anticancer agents” (CENTRE LEON BERARD, priority 2016, dated 2025):

Legend:
Myd88-ERK2 = Myd88-ERK2 (Homo sapiens (Human), UniProt P28482); test: HTRF assay of MyD88-ERK2 interaction; type: binding; conditions: GST-ERK2 50 nM, biotin-MyD88pep 50 nM; read-out: IC50* (μM) on Myd88-ERK2 in HRTF Assay
Excerpt: (§1) [drawing 67] 2-(4-dimethylamino-phenyl)-1H-benzoimidazole-5-carboxylic acid (3-chloro-phenyl)-amide was synthesized from 2-(4-dimethylamino-phenyl)-1H-benzoimidazole-5-carboxylic acid and 3-chloro-phenylamine by following the procedure for example 1. ^1H NMR (400 MHz, DMSO-d6) δ 12.90 (s, 1H), 10.37 (s, 1H), 8.17 (s, 1H), 8.08-7.98 (m, 3H), 7.82-7.73 (m, 2H), 7.61 (d, J=8.3 Hz, 1H), 7.39 (t, J=8.1 Hz, 1H), 7.15 (ddd, J=8.0, 2.1, 0.9 Hz, 1H), 6.91-6.81 (m, 2H), 3.02 (s, 6H). MS m/z (M+H) 390.9. 2/Biological Activity 2-1/In Vitro Determination of Compound Activity by HRTF Assay Principle: In the experiment, recombinant Erk1 and Erk2, tagged with a polyhistidine stretch in their N-terminal part were used. To reproduce the interaction between ERK1/2 and Myd88, a peptide corresponding to amino acids 24-40 of Myd88 was used: biotin-Ahx-[…] with Ahx being aminohexanoic acid as a spacer (biotin-MyD88peptide). This peptide encompassed the interaction motif of Myd88 with the CD domain of ERK1/2. To perform the HTRF assay this peptide was N-terminally labelled with biotin. To detect the interaction between the peptide and Erk1 or Erk2 the following components were used: an antibody directed against the His-tag, labelled with the donor fluorophore (Europium cryptate); The streptavidine protein, labelled with the acceptor XL665 fluorophore directed against the biotin. All the components except Erk1, Erk2 and the peptide were purchased from Cisbio (Condolet, France).
(§2) Homogeneous Time Resolved Fluorescence (HTRF) assay combines two techniques: Fluorescence Resonance Energy Transfer (FRET) and Time Resolved (TR) measurement. In TR-FRET, a transfer of fluorescence between a donor and an acceptor molecule generates a signal that can then be measured. This energy transfer is only possible when both fluorophores are close enough to each other. Therefore, this method can be used to detect protein-protein interaction.
For MyD88-ERK2 interaction the reaction medium contained: GST-ERK2 at 50 nM, biotin-MyD88pep at 50 nM, anti-GST-Cryptate antibody at 0.8 nM and XL665 labeled-Streptavidine at 12.5 nM.
(§3) Concentrations of compounds to be tested ranged from 0.1 μM to 100 μM. Stock solutions of compounds according to the invention were prepared at 10 mM in DMSO. […] The plate was incubated at room temperature for 2 hours and fluorescence was measured using a TECAN Infinite F500 Reader®.
(§4) Results are calculated as the variation of fluorescence (Delta F) between control and samples. Delta F was calculated using the following equation: [(Ratio sample-Ratio of the arithmetic mean of the control)/Ratio of the arithmetic mean of the control]×100 where ratio=(Acceptor fluorescence/Donor fluorescence)×10000. […]

Myd88-ERK1 = Myd88-ERK1 (Homo sapiens (Human), UniProt P27361); test: HTRF assay of MyD88-ERK1 interaction; type: binding; conditions: 6xHis-ERK1 7.5 nM, biotin-MyD88peptide 25 nM; read-out: IC50* (μM) on Myd88-ERK1 in HRTF Assay
Chain of Myd88-ERK1 (P27361 whole entry): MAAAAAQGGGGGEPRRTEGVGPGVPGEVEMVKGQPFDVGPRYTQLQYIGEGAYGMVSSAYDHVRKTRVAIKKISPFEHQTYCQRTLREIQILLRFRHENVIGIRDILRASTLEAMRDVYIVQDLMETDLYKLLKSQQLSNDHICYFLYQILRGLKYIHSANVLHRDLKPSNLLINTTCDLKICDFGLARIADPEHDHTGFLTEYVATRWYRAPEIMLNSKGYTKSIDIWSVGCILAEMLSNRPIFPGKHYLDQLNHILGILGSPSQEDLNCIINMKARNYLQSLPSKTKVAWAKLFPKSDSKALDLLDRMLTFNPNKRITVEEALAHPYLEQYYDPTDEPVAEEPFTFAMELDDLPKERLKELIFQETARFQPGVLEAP
Excerpt: as §1, §2
For MyD88-ERK1 interaction the reaction medium contained: 6xHis-ERK1 at 7.5 nM, biotin-MyD88peptide at 25 nM, anti-Histidine-Cryptate antibody at 1.3325 nM and XL665 labeled-Streptavidine at 3.125 nM.
as §3, §4

HCT116 cells = test: Apoptosis assay (Caspase-Glo 3/7); type: cell-based, Human; conditions: HCT116 p53+/+ cells, 16 h treatment, DMSO treated cells as control
Experimental: Cellular apoptosis was measured using the Caspase-Glo® 3/7 assay kit (Promega). To perform this study, HCT116 p53+/+ cells were seeded at a density of 7,000 cell/well in 96-half wells plate and maintained 24 h at 37° C. in McCoy's medium supplemented with 2 mM glutamine, 1% penicillin, 1% of streptomycin and 10% FBS. Cells were then treated with the compounds at various concentrations ranging from 1 μM to 100 μM depending on the compound. The DMSO concentration was normalized at 1% in each well and the cells were incubated for 16 h. Caspase 3/7 activity was monitored using caspase-Glo 3/7 kit according to the manufacturer instructions. Briefly, 50 μL of Caspase-Glo® 3/7 reagent was added in each well and the plates were gently agitated for 30 s and let at room temperature for an additional hour. Luminescence was then measured in a TECAN infinite 200 microplate reader. Results are expressed as the fold induction of caspase 3/7 activation using DMSO treated cells as control. The results are presented on FIGS. 1 to 3.

ERK1/2 = test: Cell-based assay, SRE luciferase reporter in HCT116 p53+/+ cells; conditions: Homo sapiens, HCT-116, 2 hours pretreatment, 10% FCS stimulation
Excerpt: The terms “SRE promoter” refer to “Serum response elements”, which is a DNA sequence (CC(A/T)6GG) that is used upstream of reporter genes and is known to be the binding site of the SRF (Serum response factor) proteins encoded by SRF gene identified by Gene Bank number (Gene ID: 6722, NM_003131.2). To determine the activity of the compounds on ERK1/2, Human Colon Tumor (HCT116) p53+/+ cell line stably transformed to express the luciferase reporter gene under the control of the serum response element (SRE) was used. This cell line was cultured in McCoy's medium supplemented with 10% FBS, 2 mM glutamine, 1% antibiotics and 1 μM of puromycin.
HCT116 p53+/+ SRE luciferase cells were plated in 96-well flat-bottom plate at 20,000/well and incubated at 37° C. for 36 hours. The medium was discarded and replaced by 100 μl of serum free medium for 16 hours. Cells were then pretreated for 2 hours with the compounds according to the invention at various concentrations (from 0.001 μM to 80 μM). Cells were then stimulated by addition of 10% FCS and incubated at 37° C. for four additional hours and the expression of reporter gene was assessed using the One-Glo Luciferase reagent (Promega). Luminescence was quantified after 5 minutes in a TECAN infinite M200 Reader (Männedorf, Switzerland). The results are presented below at paragraph 2-5.

Chain of Myd88-ERK2 (P28482 whole entry): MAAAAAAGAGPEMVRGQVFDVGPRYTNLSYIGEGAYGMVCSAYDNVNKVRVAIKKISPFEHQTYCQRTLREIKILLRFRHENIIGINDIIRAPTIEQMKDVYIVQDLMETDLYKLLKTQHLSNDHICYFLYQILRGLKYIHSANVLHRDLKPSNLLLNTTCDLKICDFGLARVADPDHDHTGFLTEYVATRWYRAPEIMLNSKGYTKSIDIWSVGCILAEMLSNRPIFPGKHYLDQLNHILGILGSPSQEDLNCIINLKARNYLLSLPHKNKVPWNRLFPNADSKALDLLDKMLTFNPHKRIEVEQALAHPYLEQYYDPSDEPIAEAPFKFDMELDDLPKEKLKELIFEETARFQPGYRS

Compound	IC50 (Myd88-ERK2) [µM]	IC50 (Myd88-ERK1) [µM]	induction of apoptosis (fold induction of caspase 3/7 activity) (HCT116 cells)	IC50 (ERK1/2) [µM]
CN(C)c1ccc(-c2nc3cc(C(=O)Nc4ccncc4)ccc3[nH]2)cc1 [Compound 2, 2-(4-Dimethylamino-phenyl)-1H-benzoimidazole-5-carboxylic acid pyridin-4-ylamide]	11.8	8	induction of apoptosis	0.32
CN(C)c1ccc(-c2nc3cc(NC(=O)c4ccccc4)ccc3[nH]2)cc1 [Comp. ex., reference compound]	> 50	> 50		> 50
CCc1ccc(NC(=O)c2ccc3[nH]c(-c4ccc(N(C)C)cc4)nc3c2)cn1 [Compound 7, 2-(4-Dimethylamino-phenyl)-1H-benzoimidazole-5-carboxylic acid (6-ethylpyridin-3-yl)-amide]	25.5	6.15	induction of apoptosis	0.79
COc1ccc(NC(=O)c2ccc3[nH]c(-c4ccc(N(C)C)cc4)nc3c2)cn1 [Compound 6, 2-(4-Dimethylamino-phenyl)-1H-benzoimidazole-5-carboxylic acid (6-methoxy-pyridin-3-yl)-amide]	2.34	4.44	induction of apoptosis	0.48
